Results: patent publication US7632662B2, “Compounds, compositions and methods for producing antioxidants from carnitine” (priority 2002, dated 2009)
Where two headings read alike, the source gives them in different places.

Experiments:
rat brain = test: Effect of ALCAR on in vitro 31P MRS brain metabolite and phospholipid levels under normoxia and brief hypoxia; type: in vivo, Fischer 344 rats; conditions: for PCr levels: non-significant; for Phosphatidylserine (PtdS) levels, change: p<0.01
Protocol: FIG. 4 is a block diagram illustrating an effect of ALCAR on in vitro ^31P MRS α-GP and PCr levels under hypoxic (30 seconds) and normoxic conditions in Fischer 344 rats.
FIG. 5 is a block diagram illustrating an effect of ALCAR on in vitro ^31P MRS phospholipid levels under hypoxic and normoxic conditions in Fischer 344 rats.
The rat brain responds differentially to brief energetic stress (30 seconds of hypoxia) depending on the age of the animal. The effect of ALCAR (75 mg/kg animal weight injected intraperitoneally 1 hour before sacrificing the animal) on both normoxic rat brain and rat brain exposed to brief hypoxia (30 seconds) was investigated (FIGS. x and x). These studies were conducted on aged rats (30 months) to provide possible insights into human aged brain and MDD.

[1] = tested on: geriatric depressed subjects; conditions: cited from earlier work; for day 60 HDRS: 3.0 gm/day
brain PME levels = test: In vivo 31P MRSI in two young subjects with MDD; design: species or system human; conditions: 2 young MDD subjects; treatment with ALCAR
Text: As part of an ongoing ^31P-^1H MRSI study of never-medicated, first-episode schizophrenia subjects three ^31P MRSI spectra on 2 MDD subjects (1 person, 1 person, 24∀2.3 years) were obtained. The MDD spectral results are compared with those obtained from 13 controls (6 males; 3 white, 2 African-American, 1 Asian and 7 females; 4 white, 3 African-American; 21∀1.0 years). PME levels in the MDD subjects were increased by approximately 15% (p=0.13) while there were decreases in the levels of PDE (approx. −7%; p=0.08), PCr (approx. −5%, p=0.61), and β-ATP (approx. −3%, p=0.87) (FIG. 6). Treatment with ALCAR lowered PME levels in the MDD subjects.

[2] = tested on: non-demented geriatric major depressive disorder (NDG-MDD) subjects; test: Twelve-week open clinical study of ALCAR in geriatric major depressive disorder: HDRS, CIRS, side effects; type: in vivo, human; conditions: for HDRS score: oral
Text: (§1) A twelve-week, open, clinical, ^31P MRSI study design was used to examine the possible effects of ALCAR on brain metabolism and depressive symptomatology in non-demented geriatric major depressive disorder (NDG-MDD). Two depressed, non-demented [Folstein Mini-Mental State Exam (MMSE)>24)] male subjects, were compared with six age, social-economic status, and medically matched non-demented controls (all male, mean age of 73.6±3.6 years, range 69.7-78.2 years). The two elderly depressed subjects completed baseline Structural Clinical Interview of DSM-IV (SCID) I/P version 2.0, HDRS (17 item), MMSE, UKU Side Effect Rating Scale (UKU), and Cumulative Illness Rating Scale (CIRS) to assess medical burden, baseline physical, ECG, and, laboratory tests for hematology, urine analysis, immunopathology, and blood chemistry. Follow-up visits for the depressed subjects were done every other week for 12 weeks. Efficacy (psychiatric evaluation) was assessed by changes in the HDRS which was performed at baseline and every other week for 12 weeks along with secondary measures (MMSE; CIRS; and UKU), whereas the CIRS was performed at baseline, 6, and 12 weeks. Physical examinations and EKGs were performed at baseline, 6, and 12 weeks. The baseline MR evaluation was scheduled and completed prior to the administration of ALCAR. Follow-up MR evaluations were at 6 and 12 weeks. Acetyl-L-carnitine was administered in the form of oral tablets containing 590 mg of acetyl-L-carnitine hydrochloride (500 mg acetyl-L-carnitine). The dosage regimen was fixed at three grams of acetyl-L-carnitine given two tablets three times a day for 12 weeks.
The statistical analysis was done using the Statview (SAS Institute, Inc.) software package. The pearson t correlation test used to correlate between variables.

Aβ(1-40) peptide = target: T1, Aβ(1-40) peptide (Homo sapiens, UniProt P05067); test: Acetylation of Aβ(1-40) peptide by ALCAR; type: biochemical
T1 construct: the Aβ(1-40) peptide derived from the ubiquitous protein, amyloid precursor protein

[3] = tested on: brain PME(s-τc) and PCr levels; test: 31P MRSI of brain metabolite levels in two depressed elderly subjects treated with ALCAR for 12 weeks; type: in vivo, human; conditions: for increase of prefrontal PCr levels with ALCAR treatment: prefrontal region
Text: Phosphorus magnetic resonance spectroscopic imaging (^31P MRSI) analysis of two depressed elderly subjects treated with ALCAR for 12 weeks are compared with those of six normal non-demented, non-depressed subjects.
as §1
^31P MRSI acquisition—A custom built, doubly tuned transmit/receive volume head coil was used to acquire the ^1H MRI and 2D ^31P MRSI data on a GE Signa 1.5 T whole body MR imager. First, sets of axial and sagittal scout MR images were collected. […] A self-refocused spin echo pulse sequence with an effective flip range of 60° and an echo time of 2.5 ms, was used to acquire the ^31P MRSI (360 mm field of view, 30 mm slice thickness, 8×8 phase encoding steps [45×45×30 mm^3 nominal voxel dimensions], 2 s TR, 1024 data points, 4.0 kHz spectral bandwidth and 16 NEX).
MRSI post-processing and quantification—To optimize the right and left voxel positions for the six regions, the 8×8 ^31P grid was shifted with respect to the anatomical MRI and a mild spatial apodization (i.e., Fermi window with 90% diameter and 5% transition width) was applied prior to the inverse Fourier transform. The remaining processing steps were 100% automated. A 5 Hz exponential apodization was applied and the PME, phosphodiester (PDE), PCr, α-, γ-, and β-ATP, and inorganic orthophosphate (Pi), were modeled in the time domain with exponentially damped sinusoids and by omitting the first 2.75 ms of the free induction decay (FID) using the Marquardt-Levenberg algorithm. This approach ensured that the PME and PDE resonances primarily reflected the freely mobile, short correlation time (s-τc), water soluble PME(s-τc) and PDE(s-τc) metabolites without the influence of relatively broad underlying signals within the PME and PDE spectral region. […]

[4] = tested on: canine model of complete, global cerebral ischemia and reperfusion; conditions: versus vehicle-treated control animals; p=0.0037; Rosenthal et al. 1992; cited from earlier work

T1 sequence (P05067 672-711 limits assumed): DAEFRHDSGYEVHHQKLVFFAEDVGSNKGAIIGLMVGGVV

With CC(=O)O[C@H](CC(=O)[O-])C[N+](C)(C)C [ALCAR, acetyl-L-carnitine] the Cardiolipin levels (rat brain; ALCAR/hypoxia) was “non-significantly reduced”, the “α-GP levels, change compared with controls” value (rat brain; ALCAR/hypoxia (30 seconds), aged rats (30 months), 75 mg/kg i.p., p=0.01) was “approximately +80%” and the PCr levels (rat brain; ALCAR/hypoxia, p=0.07) was “decrease”. The “Phosphatidylserine (PtdS) levels, change” value (rat brain; ALCAR/hypoxic) was “approx. −75%”, the Cardiolipin levels (rat brain; ALCAR/normoxia) was “unchanged” and the α-GP levels (rat brain; ALCAR/normoxia, aged rats (30 months), 75 mg/kg intraperitoneally 1 hour before sacrifice) was “did not alter”. For the same compound, the PCr levels (rat brain; ALCAR/normoxia) was “increase”, the “Phosphatidylserine (PtdS) levels, change” value (rat brain; ALCAR/normoxia) was “approx. −50%” and the “day 60 HDRS” value ([1]; Bella et al. 1990, baseline HDRS 22, placebo day 60 = 20) was 11. For the same compound, the “day 60 HDRS” value ([1]; Fulgente et al. 1990, baseline HDRS 25, placebo day 60 = 22) was 12, the HDRS ([1]; Garzya et al. 1990, 1.5 gm/day, ages 70-80 years) was “significant beneficial effects” and the “mean cortisol levels and 12 am and 4 pm cortisol levels” value ([1]; Gecele et al. 1991, 2 gm/day, p<0.001, p<0.001, p<0.01) was “significant reduction”. The HDRS ([1]; Gecele et al. 1991, 2 gm/day, p<0.001) was “significant improvement”, the HDRS scores ([1]; Nasca et al. 1989, day 40 of treatment, baseline HDRS 44.9, p<0.001) was “significant improvement” and the side effects ([1]; Tempesta et al. 1987, 2 gm/day) was “no reported ALCAR side effects”. For the same compound, the HDRS scores ([1]; Tempesta et al. 1987, open label cross over, 2 gm/day, subjects over 70 years) was “highly effective”, the side effects ([1]; Villardita et al. 1983, 1.5 gm/day, 40 days) was “no side effects” and the “Hamilton Depressive Rating Scale (HDRS)” value ([1]; Villardita et al. 1983, 1.5 gm/day, day 40, baseline HDRS 26.3, p<0.001) was “significant improvement”. For the same compound, the tolerability ([1]; randomized double-blind studies, even at the higher dosages (up to 3.0 gm/day)) was “well tolerated”, the “PME levels in the MDD subjects” value (brain PME levels) was “lowered” and the “Side effects from ALCAR treatment” value ([2]; both depressed subjects, 12 weeks, three grams per day) was “mild”. The “laboratory exams and EKG” value ([2]; either depressed subject) was “No clinically significant abnormalities”, the “Side effects from ALCAR treatment” value ([2]; subject #1) was “dry mouth” and the CIRS ([2]; subject #1, 6 weeks, baseline 7) was 6. It also gave an HDRS score ([2]; subject #1, 6 weeks, baseline 15, three grams acetyl-L-carnitine per day) of 1, a CIRS ([2]; subject #1, 12 weeks, baseline 7) of 5 and an HDRS score ([2]; subject #1, 12 weeks, baseline 15, three grams per day) of 0. For the same compound, the “Side effects from ALCAR treatment” value ([2]; subject #2) was “slight increase in perspiration”, the CIRS ([2]; subject #2, 6 weeks, baseline 4) was 4 and the HDRS score ([2]; subject #2, 6 weeks, baseline 20, three grams per day) was 17. For the same compound, the CIRS ([2]; subject #2, 12 weeks, baseline 4) was 2, the HDRS score ([2]; subject #2, 12 weeks, baseline 20, three grams per day) was 3 and the “acetylation of the Aβ(1-40) peptide” value (Aβ(1-40) peptide) was “can acetylate lysine 28”. The “PME(s-τc) levels in the superior temporal regions” value ([3]; after 12 weeks of ALCAR treatment, compared with normal subjects, p=0.05) was “elevated”, the “PCr levels in the prefrontal, basal ganglia and occipital regions” value ([3]; after 12 weeks of ALCAR treatment, compared with normal subjects, p=0.001, 0.022, 0.027) was “elevated” and the “prefrontal PME(s-τc) levels” value ([3]; baseline 1.5 to 2.0 SD higher than mean of controls, with ALCAR treatment) was “normalized”. For the same compound, the “increase of prefrontal PCr levels with ALCAR treatment” value ([3]; first of the two depressed subjects (respectively)) was 27%, the “increase of prefrontal PCr levels with ALCAR treatment” value ([3]; second of the two depressed subjects (respectively)) was 31% and the neurological deficit scores [4] was “significantly lower”.
